The conditions of data set [1]: ether bond, 20-membered ring, PPh3/DIAD, THF.
For data set [2] the following is noted: ether bond, PPh3/DIAD, THF.
[3] abbreviates: from COC(=O)[C@@H](OC(C)(C)C)c1c(C)cc2nc(-c3cccc(-c4c(O)cc(C)cc4F)c3)cn2c1N1CCC(C)(OCCOC[C@@H](C)O)CC1, 42.7 mM, 0.5 h, 2 steps.
Setting [4] is: from COC(=O)[C@@H](OC(C)(C)C)c1c(C)cc2nc(-c3cccc(-c4cc(F)c(F)cc4O)c3)cn2c1N1CCC(C)(OCCOC[C@@H](C)O)CC1, 10.0 mM, 0.5 h.
The mark [5] stands for this setting: from COC(=O)[C@@H](OC(C)(C)C)c1c(C)c(C)c2nc(-c3cccc(-c4cc(F)c(F)cc4O)c3)c(C)n2c1N1CCC(C)(OCCOC[C@@H](C)O)CC1, 2.77 mM, 1.0 h, 2 steps.
Where [6] appears, read: from COC(=O)[C@@H](OC(C)(C)C)c1c(C)cc2nc(-c3cccc(-c4ccc(C)cc4O)c3)cn2c1N1CCC(C)(OCCOC[C@@H](C)O)CC1, 1.41 mM, 1.0 h.
[7] abbreviates: from COC(=O)[C@@H](OC(C)(C)C)c1c(C)c(C)c2nc(-c3cccc(-c4c(O)cc(C)cc4F)c3)cn2c1N1CCC(C)(OCCOC[C@@H](C)O)CC1, 6.7 mM, 1.0 h, 2 steps.
[8] abbreviates: from COC(=O)[C@@H](OC(C)(C)C)c1c(C)c(C)c2nc(-c3cccc(-c4ccc(C)cc4O)c3)cn2c1N1CCC(C)(OCCOC[C@@H](C)O)CC1, 20.0 mM, 0.5 h.

Like-named read-outs stand apart in the source and are kept apart here.

In data set [1] (setting [3]), `COC(=O)[C@@H](OC(C)(C)C)c1c(C)cc2nc3cn2c1N1CCC(C)(CC1)OCCOC[C@H](C)Oc1cc(C)cc(F)c1-c1cccc-3c1` returned a ring closure, isolated yield of 6%. In data set [2] (setting [3]), this compound came in with a ring closure, yield of all isomers of 6%.

For `COC(=O)[C@@H](OC(C)(C)C)c1c(C)cc2nc3cn2c1N1CCC(C)(CC1)OCCOC[C@H](C)Oc1cc(F)c(F)cc1-c1cccc-3c1`, the ring closure, isolated yield in data set [1] (setting [4]) worked out at 95%. The ring closure, yield of all isomers in data set [2] (setting [4]) amounted to 95%.

In turn, `COC(=O)[C@@H](OC(C)(C)C)c1c(C)c(C)c2nc3c(C)n2c1N1CCC(C)(CC1)OCCOC[C@H](C)Oc1cc(F)c(F)cc1-c1cccc-3c1` came in with a ring closure, isolated yield in data set [1] (setting [5]) of 30%. Also, the ring closure, yield of all isomers in data set [2] (setting [5]) stood at 30%.

In data set [1] (setting [6]), `COC(=O)[C@@H](OC(C)(C)C)c1c(C)cc2nc3cn2c1N1CCC(C)(CC1)OCCOC[C@H](C)Oc1cc(C)ccc1-c1cccc-3c1` gave a ring closure, isolated yield of 65%. This compound also yielded a ring closure, yield of all isomers in data set [2] (setting [6]) of 65%.

In data set [1] (setting [7]), `COC(=O)[C@@H](OC(C)(C)C)c1c(C)c(C)c2nc3cn2c1N1CCC(C)(CC1)OCCOC[C@H](C)Oc1cc(C)cc(F)c1-c1cccc-3c1` showed a ring closure, isolated yield of 81%. Moreover, in data set [2] (setting [7]), the ring closure, yield of all isomers was 81%.

`COC(=O)[C@@H](OC(C)(C)C)c1c(C)c(C)c2nc3cn2c1N1CCC(C)(CC1)OCCOC[C@H](C)Oc1cc(C)ccc1-c1cccc-3c1` displayed a ring closure, isolated yield in data set [1] (setting [8]) of 47%. Also, the ring closure, yield of all isomers in data set [2] (setting [8]) was 47%.

The values are drawn from US10138253B2, “Imidazopyridine macrocycles as inhibitors of human immunodeficiency virus replication” (priority 2015, dated 2018).
